The values that follow come from US20200188540A1, “CONFORMATIONALLY STRAINED TRANS-CYCLOALKENES FOR RADIOLABELING” (UNIVERSITY OF DELAWARE, priority 2015, published 2020).

Bounds are passed on as bounds.

The nature of data set [1]: Stopped-flow kinetic analysis of Diels-Alder reaction of sTCO diastereomers with PEGylated tetrazine 11. The conditions noted are these: for rate constant k2 with tetrazine 11: 55:45 MeOH:water at 25° C., stopped flow; for Mean k2: average of four sTCO concentrations, spread printed in cells below; for Mean k2 / k2 / kobs: tetrazine 11 0.05 mM, water:methanol 45:55, 25° C.; for kobs: in s-1 (unit assumed). The procedure:
Stopped flow kinetic analysis was used to measure the rate of the Diels-Alder reaction between tetrazine derivative 11 and anti- and syn-diastereomers of sTCO (4 and 5, respectively). […] The latter is the fastest rate constant that has been described for a bioorthogonal reaction. For the present study, the inventors used stopped flow analysis to compare the relative rate of the syn- and anti-diastereomers 5 and 4 with tetrazine 11 in mixed organic/aqueous media (55:45 MeOH:water at 25° C.). As expected, the rates in MeOH:water were ˜9 fold slower than the measurements made in purely aqueous media, but still extremely rapid. The rate constant for the syn-diastereomer 5 with tetrazine 11 was k2 3.7×10^4 (+/−0.1×10^3) M^−1s^−1, and the anti-diastereomer 4 reacted with a rate constant k2 3.3×10^4 (+/−0.1×10^3) M^−1s^−1. Because the syn-diastereomer was more reactive it was chosen for further development
The second order rate constant was measured under pseudo-first order conditions using an excess of the appropriate sTCO diastereomer (4 or 5), and by following the exponential decay of absorbance due to the tetrazine chromophore of 11 at 298 nm using an SX 18MV-R stopped-flow spectrophotometer (Applied Photophysics Ltd.). For each run, equal volumes of 45:55 water:methanol solutions of sTCO and PEGylated tetrazine 11 were mixed in the stopped flow device. Reactions were carried out with tetrazine 11 at 0.05 mM and final concentrations of 0.245, 0.49, 0.98 and 1.47 mM for the syn-diastereomer 5. Similarly, reactions were carried out with tetrazine 11 at 0.05 mM and final concentrations of 0.25, 0.50, 1.00 and 1.50 mM for the anti-diastereomer 4. A total of 400 data points were recorded over a period of 1 second, and each sample was performed in sextuplicate at 298 K. The kobs was determined by nonlinear regression analysis of the data points using Prism software (v. 6.00, GraphPad Software Inc.).
The reaction between sTCOs 4 & 5 and the PEGylated tetrazine 11 was measured under pseudo-first order conditions in water:methanol 45:55 by following the exponential decay of the tetrazine at 298 nm over time using an SX 18MV-R stopped flow spectrophotometer (Applied Photophysics Ltd.). Solutions were prepared for the sTCO concentrations see table below water:methanol 45:55) and the tetrazine (0.1 mM in water:methanol 45:55) and thermostatted in the syringes of the spectrophotometer before measuring. 400 data points were recorded over a period of 1 second, and performed in sextuplicate at 298 K. The kobs was determined by nonlinear regression analysis of the data points using Prism software (v. 6.00, GraphPad Software Inc.).
• PEGylated tetrazine 11 at 25° C. in water:methanol (45:55) measured under pseudo first order conditions using SX 18MV-R stopped flow spectrophotometer. Values were determined from an average of four runs. Synthesis and Characterization of a Conformationally Strained Trans-Cyclooctene with a Cis-Fused Cyclopentane Ring

The nature of data set [2]: In vitro stability in 1× PBS buffer. Type of data set: physicochemical. As to conditions: 37° C.; for radiochemical purity after incubation in 1× PBS: 2 hours. How it is done: (§1) An aliquot of the solution (˜25 μCi) was taken out and loaded on HPLC at 1 h and 2 h time points for analysis. ^18F-9 was also incubated in FBS at 37° C. and after 1 h, an aliquot of the solution (˜25 μCi) was taken out and added to an equal volume of TFA. Similarly, ^18F-15 was also incubated in FBS at 37° C., and at 2 and 4 h time points, aliquots of the solution (˜25 μCi) were taken and added to an equal volume of TFA. For each sample, the mixture was centrifuged at 14000 rpm for 5 min. The supernatant was then diluted with 1 mL water and loaded on C18 Sep-Pak. After washing with 1 mL water, the cartridge was eluted with 0.5 mL acetonitrile. The water fraction and acetonitrile fraction were combined and loaded on HPLC for analysis

A short description of data set [3]: In vitro stability in fetal bovine serum (FBS). Type of data set: in vitro ADME. As to conditions: 37° C. How it is done:
as §1

A short description of data set [4]: microPET imaging in normal (non-tumor bearing) nude mice. As to conditions: normal nude mouse. Type of data set: in vivo. How it is done: The inventors also performed microPET imaging with a normal (non-tumor bearing) nude mouse that had been injected with ^18F-9. […] The inventors also analyzed the clearance of the compound obtained by combining ^18F-9 with 11. This Diels-Alder conjugate—and analog of ^18F-15 that lacks the RGD moiety—still remained in the blood circulatory system after 4 hours. The blood uptake was 2.4% ID/g at 4 h post injection. The inventors have previously reported ^18F-labeled RGD probes derived from trans-cyclooctene 1.
No background correction was performed.

The nature of a further data set: in vivo. As to conditions: mouse, iv, 3.7 MBq (100 uCi), total radioactivity. The procedure: (§2) The localization of ^18F-15 in human U87MG tumor-bearing mice (n=5) was performed by static microPET scans at multiple time-point post tail vein injection. Selected decay-corrected coronal images at different time points were obtained after injection of 3.7 MBq (100 μCi) of ^18F-15. […] Data are expressed as average +/−SD.
(§3) Animal procedures were performed according to a protocol approved by the UNC Institutional Animal Care and Use Committee. PET scans and image analysis were performed using a small animal PET scanner. Human U87MG tumor-bearing mice were anesthetized using 2% isoflurane and injected with 3.7 MBq (100 μCi) of ^18F-15 via the tail vein. At 0.5, 1.0, 2.0, and 4.0 h post injection, static emission scans were acquired for 10 min. Normal nude mice were injected with 3.7 MBq (100 μCi) of the Diels-Alder conjugate obtained by combining ^18F-9 and 11), or in a separate experiment by injecting only ^18F-9 using the same protocol. Raw PET images were reconstructed using 2D ordered subset expectation maximization (OSEM) algorithm. No background correction was performed. Regions of interest (ROI) were manually drawn over the tumor and other organs on the decay corrected coronal images. Based on the assumption that the tissue density is 1 g/mL, the ROIs were converted to % ID/g by dividing dose per gram at ROI by injected dose.
(§4) Quantitative data were expressed as mean±SD. Means were compared using one-way ANOVA and Student's t test. P values<0.05 were considered statistically significant.

The test system of another data set is human U87MG tumor. As to the kind of experiment: in vivo. The procedure: as §2, §3, §4

For `FCCOCCOCCOC[C@@H]1[C@@H]2CC/C=C/CC[C@@H]21` [^18F-9], the kinetics with diphenyl-s-tetrazines in data set [1] (general statement of reactivity) is > 10^4 M^−1s^−1. Further, in data set [2] (1 hour), the “radiopurity after incubation in 1× PBS” value worked out at 97.5%. Moreover, the “radiochemical purity after incubation in 1× PBS” value in data set [2] is given as 97.3%. The “radiochemical purity retained in fetal bovine serum” value in data set [3] (1 hour) is given as 74%. Besides, the “time to clearance by the gallbladder, kidney and liver” value in data set [4] is at most 2 h.
Turning to `OC[C@H]1[C@H]2CC/C=C/CC[C@@H]12` [Compound 5, (rel-1R,8S,9S,4E)-Bicyclo[6.1.0]non-4-ene-9-ylmethanol], the “rate constant k2 with tetrazine 11” value in data set [1] is recorded as 3.7×10^4 (+/−0.1×10^3) M^−1s^−1. In addition, the “Mean k2” value in data set [1] is given as 36,100 M^−1s^−1. Besides, the k2 in data set [1] (resulting sTCO 0.245 mM) was found to be 34347 M⁻¹ s⁻¹; in data set [1] (resulting sTCO 0.49 mM), 37571 M⁻¹ s⁻¹; in data set [1] (resulting sTCO 0.98 mM), 35796 M⁻¹ s⁻¹; in data set [1] (resulting sTCO 1.47 mM) it was 36857 M⁻¹ s⁻¹. Besides, the kobs in data set [1] (resulting sTCO 0.245 mM) came to 8.415; in data set [1] (resulting sTCO 0.49 mM), 18.41; in data set [1] (resulting sTCO 0.98 mM) it was 35.08; in data set [1] (resulting sTCO 1.47 mM) it was 54.18.
For `OCC1C2CCC=CCCC12` (stereo not drawn) [Compound 4], the “rate constant k2 with tetrazine 11” value in data set [1] was 3.3×10^4 (+/−0.1×10^3) M^−1s^−1. Further, the “Mean k2” value in data set [1] is listed as 31,700 M^−1s^−1. The k2 stood at 29832 M⁻¹ s⁻¹ in data set [1] (resulting sTCO 0.25 mM), 31680 M⁻¹ s⁻¹ in data set [1] (resulting sTCO 0.5 mM), 32510 M⁻¹ s⁻¹ in data set [1] (resulting sTCO 1 mM) and 32653 M⁻¹ s⁻¹ in data set [1] (resulting sTCO 1.5 mM). The kobs in data set [1] (resulting sTCO 0.25 mM) came out at 7.458; in data set [1] (resulting sTCO 0.5 mM), 15.84; in data set [1] (resulting sTCO 1 mM), 32.51; in data set [1] (resulting sTCO 1.5 mM) it was 48.98.
Turning to `N=C(N)NCCC[C@@H]1NC(=O)C(CCCCNC(=O)CCOCCOCCOCCOCCOCCOCCOCCOCCOCCOCCOCCOCCNC(=O)OCc2ccc(C3=NNC(c4ccccc4)=C4CC[C@H]5[C@@H](CCC34)[C@H]5COCCOCCOCCF)cc2)NC(=O)[C@@H](Cc2ccc(O)cc2)NC(=O)[C@H](CC(=O)O)NC(=O)CNC1=O` (stereo partly drawn) [^18F-15], in “in vivo” (tumor (U87MG)), the tissue uptake at 0.5 h stood at 5.3 %ID/g, the tissue uptake at 1 h turned out to be 6.9 %ID/g, the tissue uptake at 2 h worked out at 7.5 %ID/g and the tissue uptake at 4 h stood at 8.9 %ID/g. Moreover, in “in vivo” (tumor and kidney), the tissue to tissue ratio at 4 h is 2.4. The tissue to tissue ratio at 4 h in the data set “in vivo” (tumor and liver) stood at 1.6. Moreover, the “tumor uptake relative to other major organs” value with human U87MG tumor (4 h post injection) is 1.6-2.4 fold. In the data set on human U87MG tumor (co-injected with non-radio labeled cRGDyK (200 μg), 1 h post injection), the “tracer uptake in tumor, blocking experiment” value is given as 4.8+/−0.3%. Also, in data set [2], the “radiochemical purity after incubation in 1× PBS” value turned out to be 98.5%. In addition, in data set [3] (2 hours post incubation), the “purity in fetal bovine serum” value was determined as 96.7%. In addition, in data set [3] (4 hours post incubation), the “purity in fetal bovine serum” value was 94.5%.

As usually defined, the tissue uptake is the share of the injected amount in each gram of the tissue.
